Assay results: a compilation of properties of binary mixtures (doi:10.1021/acs.jpcb.5b11900)

Experiment: xn = mol fraction of the nth substance listed
Details: 101 kPa

CC[NH3+].O=[N+]([O-])[O-] + CC[NH+](CC)CC.O=[N+]([O-])[O-]
x2 = 0
Details	electrical conductivity [S/m]	viscosity [mPa·s]
303.15 K	2.6	31
308.15 K	2.97	26.5
318.15 K	3.78	20
328.15 K	–	15.6
333.15 K	–	13.8
338.15 K	–	12.5
343.15 K	–	11.2
348.15 K	–	10.2
353.15 K	–	9.2

CCC[NH3+].O=[N+]([O-])[O-] + CCCC[NH3+].O=[N+]([O-])[O-]
x1 = 0.5
Details	electrical conductivity [S/m]	viscosity [mPa·s]
298.15 K	0.606	80.6
303.15 K	0.729	65.7
308.15 K	0.866	54.2
318.15 K	1.18	38.3
333.15 K	–	24.4
338.15 K	–	21.3
348.15 K	–	16.7
353.15 K	–	14.9

CC[NH+](CC)CC.O=[N+]([O-])[O-] + CC[NH3+].O=[N+]([O-])[O-]
Details	electrical conductivity [S/m]	viscosity [mPa·s]
293.15 K, x1 = 0.0499	1.67	46.6
293.15 K, x1 = 0.0999	1.45	51.2
293.15 K, x1 = 0.3995	0.71	90.2
293.15 K, x1 = 0.4472	0.62	100
293.15 K, x1 = 0.5003	0.56	108.1
293.15 K, x1 = 0.5485	0.56	105.4
298.15 K, x1 = 0.0499	1.96	39
298.15 K, x1 = 0.0999	1.71	42.5
298.15 K, x1 = 0.1997	1.36	51.1
298.15 K, x1 = 0.25	1.16	56.2
298.15 K, x1 = 0.2993	1.02	62.4
298.15 K, x1 = 0.3475	0.95	66.9
298.15 K, x1 = 0.3995	0.85	71.8
298.15 K, x1 = 0.4472	0.75	79.3
298.15 K, x1 = 0.5003	0.68	85.2
298.15 K, x1 = 0.5485	0.68	83.1
303.15 K, x1 = 0.0499	2.27	32.9
303.15 K, x1 = 0.0999	1.99	35.7
303.15 K, x1 = 0.149	1.77	37.9
303.15 K, x1 = 0.1997	1.59	42.5
303.15 K, x1 = 0.25	1.36	46.5
303.15 K, x1 = 0.2993	1.2	51.4
303.15 K, x1 = 0.3995	1.01	58.5
303.15 K, x1 = 0.4472	0.9	64.3
303.15 K, x1 = 0.5003	0.82	68.8
303.15 K, x1 = 0.5485	0.81	67
308.15 K, x1 = 0.0499	2.6	28.1
308.15 K, x1 = 0.0999	2.29	30.3
308.15 K, x1 = 0.149	2.05	32.1
308.15 K, x1 = 0.1997	1.84	35.7
308.15 K, x1 = 0.25	1.58	39
308.15 K, x1 = 0.2993	1.4	42.8
308.15 K, x1 = 0.3475	1.31	45.4
308.15 K, x1 = 0.3995	1.18	48.3
308.15 K, x1 = 0.4472	1.06	52.8
308.15 K, x1 = 0.5003	0.96	56.3
308.15 K, x1 = 0.5485	0.96	54.7
313.15 K, x1 = 0.0499	2.96	24.1
313.15 K, x1 = 0.0999	2.61	26
313.15 K, x1 = 0.149	2.35	27.7
313.15 K, x1 = 0.1997	2.12	30.7
313.15 K, x1 = 0.25	1.81	33
313.15 K, x1 = 0.2993	1.63	36.1
313.15 K, x1 = 0.3475	1.52	38.5
313.15 K, x1 = 0.5003	1.13	47.1
313.15 K, x1 = 0.5485	1.12	45.8
318.15 K, x1 = 0.0499	3.33	21
318.15 K, x1 = 0.0999	2.95	22.6
318.15 K, x1 = 0.149	2.66	23.7
318.15 K, x1 = 0.1997	2.41	26
318.15 K, x1 = 0.25	2.07	28.2
318.15 K, x1 = 0.2993	1.86	30.6
318.15 K, x1 = 0.3475	1.74	32.3
318.15 K, x1 = 0.3995	1.58	34.1
318.15 K, x1 = 0.4472	1.41	36.9
318.15 K, x1 = 0.5003	1.3	39.1
318.15 K, x1 = 0.5485	1.29	37.9
323.15 K, x1 = 0.0499	3.73	18.4
323.15 K, x1 = 0.149	2.99	20.6
323.15 K, x1 = 0.1997	2.71	22.5
323.15 K, x1 = 0.25	2.34	24.2
323.15 K, x1 = 0.2993	2.11	26.3
323.15 K, x1 = 0.3475	1.97	27.6
323.15 K, x1 = 0.4472	1.61	31.3
323.15 K, x1 = 0.5485	1.48	32.1
328.15 K, x1 = 0.0499	–	16.3
328.15 K, x1 = 0.0999	–	17.3
328.15 K, x1 = 0.1997	–	19.7
328.15 K, x1 = 0.25	–	21
328.15 K, x1 = 0.2993	–	22.8
328.15 K, x1 = 0.3475	–	23.9
328.15 K, x1 = 0.4472	–	26.9
333.15 K, x1 = 0.0499	–	14.4
333.15 K, x1 = 0.0999	–	15.3
333.15 K, x1 = 0.149	–	16.1
333.15 K, x1 = 0.25	–	18.4
333.15 K, x1 = 0.2993	–	19.9
333.15 K, x1 = 0.3475	–	21
333.15 K, x1 = 0.3995	–	22
333.15 K, x1 = 0.4472	–	23.5
338.15 K, x1 = 0.0499	–	12.9
338.15 K, x1 = 0.0999	–	13.7
338.15 K, x1 = 0.149	–	14.2
338.15 K, x1 = 0.1997	–	15.2
338.15 K, x1 = 0.25	–	16.3
338.15 K, x1 = 0.3475	–	18.2
338.15 K, x1 = 0.3995	–	19
338.15 K, x1 = 0.5003	–	21.2
338.15 K, x1 = 0.5485	–	20.5
343.15 K, x1 = 0.0999	–	12.3
343.15 K, x1 = 0.149	–	12.7
343.15 K, x1 = 0.1997	–	13.5
343.15 K, x1 = 0.25	–	14.5
343.15 K, x1 = 0.3475	–	16.1
343.15 K, x1 = 0.3995	–	16.8
343.15 K, x1 = 0.4472	–	17.8
343.15 K, x1 = 0.5003	–	19.3
343.15 K, x1 = 0.5485	–	17.9
348.15 K, x1 = 0.0499	–	10.5
348.15 K, x1 = 0.149	–	11.4
348.15 K, x1 = 0.1997	–	12.1
348.15 K, x1 = 0.25	–	13
348.15 K, x1 = 0.3475	–	14.3
348.15 K, x1 = 0.3995	–	14.9
353.15 K, x1 = 0.0999	–	9.6
353.15 K, x1 = 0.149	–	10.4
353.15 K, x1 = 0.1997	–	11
353.15 K, x1 = 0.25	–	11.7
353.15 K, x1 = 0.3475	–	13
353.15 K, x1 = 0.3995	–	13.5
353.15 K, x1 = 0.4472	–	14.2

CC[NH2+]CC.O=[N+]([O-])[O-] + CC[NH3+].O=[N+]([O-])[O-]
Details	electrical conductivity [S/m]	viscosity [mPa·s]
293.15 K, x1 = 0.0499	1.8	44.4
293.15 K, x1 = 0.1499	1.69	45.4
293.15 K, x1 = 0.1999	1.55	49.7
293.15 K, x1 = 0.2501	1.59	46
293.15 K, x1 = 0.2998	1.55	45.6
298.15 K, x1 = 0.0499	2.1	37.2
298.15 K, x1 = 0.0998	2.02	36.2
298.15 K, x1 = 0.1499	1.99	37.9
298.15 K, x1 = 0.1999	1.83	41.3
298.15 K, x1 = 0.2998	1.87	37.9
298.15 K, x1 = 0.3501	1.72	41.2
303.15 K, x1 = 0.0499	2.43	31.5
303.15 K, x1 = 0.0998	2.34	30.6
303.15 K, x1 = 0.1499	2.31	31.9
303.15 K, x1 = 0.1999	2.12	34.7
303.15 K, x1 = 0.2501	2.18	32.2
303.15 K, x1 = 0.2998	2.18	31.9
303.15 K, x1 = 0.3501	2	34.5
308.15 K, x1 = 0.0998	2.69	26.2
308.15 K, x1 = 0.1499	2.64	27.3
308.15 K, x1 = 0.1999	2.44	29.4
308.15 K, x1 = 0.2501	2.5	27.4
308.15 K, x1 = 0.2998	2.5	27.2
308.15 K, x1 = 0.3501	2.3	29.2
313.15 K, x1 = 0.0499	3.16	23.2
313.15 K, x1 = 0.0998	3.06	22.4
313.15 K, x1 = 0.1499	3.01	23.4
313.15 K, x1 = 0.2501	2.84	23.4
313.15 K, x1 = 0.2998	2.84	23.3
318.15 K, x1 = 0.0499	3.55	20.2
318.15 K, x1 = 0.1999	3.15	21.8
318.15 K, x1 = 0.2501	3.2	20.4
318.15 K, x1 = 0.3501	2.97	21.6
323.15 K, x1 = 0.0499	3.97	17.8
323.15 K, x1 = 0.0998	3.85	17.3
323.15 K, x1 = 0.2501	3.59	17.8
323.15 K, x1 = 0.2998	3.59	17.8
323.15 K, x1 = 0.3501	3.34	18.8
328.15 K, x1 = 0.0499	–	15.7
328.15 K, x1 = 0.1499	–	15.8
328.15 K, x1 = 0.1999	–	16.7
328.15 K, x1 = 0.2501	–	15.7
328.15 K, x1 = 0.3501	–	16.5
333.15 K, x1 = 0.0499	–	13.9
333.15 K, x1 = 0.0998	–	13.6
333.15 K, x1 = 0.1499	–	14
333.15 K, x1 = 0.1999	–	14.7
333.15 K, x1 = 0.2501	–	13.9
333.15 K, x1 = 0.2998	–	13.9
333.15 K, x1 = 0.3501	–	14.6
338.15 K, x1 = 0.0499	–	12.5
338.15 K, x1 = 0.0998	–	12.1
338.15 K, x1 = 0.1499	–	12.5
338.15 K, x1 = 0.1999	–	13.1
338.15 K, x1 = 0.2501	–	12.5
338.15 K, x1 = 0.3501	–	13
343.15 K, x1 = 0.0998	–	10.8
343.15 K, x1 = 0.1999	–	11.9
343.15 K, x1 = 0.2501	–	11.2
343.15 K, x1 = 0.2998	–	10.9
343.15 K, x1 = 0.3501	–	11.7
348.15 K, x1 = 0.0998	–	9.8
348.15 K, x1 = 0.1499	–	10.1
348.15 K, x1 = 0.1999	–	10.7
348.15 K, x1 = 0.2501	–	10.1
348.15 K, x1 = 0.2998	–	9.6
348.15 K, x1 = 0.3501	–	10.5
353.15 K, x1 = 0.0499	–	9.2
353.15 K, x1 = 0.2501	–	9.14
353.15 K, x1 = 0.2998	–	8.69
